Assay results reported in patent US10696615B2, “Prenylated hydroxystilbenes” (The University of Sydney, priority 2011, dated 2020).

What was measured:
[1] = tested on: UACC-257; test: NCI in vitro cancer screen, Melanoma; format: cell-based, human; conditions: UACC-257
[2] = tested on: M14; test: NCI in vitro cancer screen, Melanoma; format: cell-based, human; conditions: M14
[3] = tested on: SK-MEL-2; test: NCI in vitro cancer screen, Melanoma; format: cell-based, human; conditions: SK-MEL-2
[4] = tested on: EKVX; test: NCI in vitro cancer screen, Non-Small Cell Lung Cancer; format: cell-based, human
[5] = tested on: SK-MEL-28; test: NCI in vitro cancer screen, Melanoma; format: cell-based, human; conditions: SK-MEL-28
[6] = tested on: MCF7; test: NCI in vitro cancer screen, Breast Cancer; format: cell-based, human; conditions: MCF7
[7] = tested on: HCT-15; test: NCI in vitro cancer screen, Colon Cancer; format: cell-based, human; conditions: HCT-15
[8] = tested on: T-47D; test: NCI in vitro cancer screen, Breast Cancer; format: cell-based, human
[9] = tested on: UO-31; test: NCI in vitro cancer screen, Renal Cancer; format: cell-based, human; conditions: UO-31
[10] = tested on: KM12; test: NCI in vitro cancer screen, Colon Cancer; format: cell-based, human; conditions: KM12
[11] = tested on: HOP-92; test: NCI in vitro cancer screen, Non-Small Cell Lung Cancer; format: cell-based, human; conditions: HOP-92
[12] = tested on: LOX IMVI; test: NCI in vitro cancer screen, Melanoma; format: cell-based, human
[13] = tested on: SF-539; test: NCI in vitro cancer screen, CNS Cancer; format: cell-based; conditions: SF-539
[14] = tested on: SF-268; test: NCI in vitro cancer screen, CNS Cancer; format: cell-based, human; conditions: SF-268
[15] = tested on: OVCAR-8; test: NCI in vitro cancer screen, Ovarian Cancer; format: cell-based, human; conditions: OVCAR-8
[16] = tested on: HT29; test: NCI in vitro cancer screen, Colon Cancer; format: cell-based, human; conditions: HT29
[17] = tested on: NCI-H322M; test: NCI in vitro cancer screen, Non-Small Cell Lung Cancer; format: cell-based, human
[18] = tested on: COLO 205; test: NCI in vitro cancer screen, Colon Cancer; format: cell-based, human; conditions: COLO 205
[19] = tested on: RXF-393; test: NCI in vitro cancer screen, Renal Cancer; format: cell-based, human; conditions: RXF-393
[20] = tested on: HL-60 (TB); test: NCI in vitro cancer screen, Leukemia; format: cell-based, human; conditions: HL-60 (TB)
[21] = tested on: MDA-MB-231 (MDA-MB-231/ATCC); test: NCI in vitro cancer screen, Breast Cancer; format: cell-based, human; conditions: MDA-MB-231
[22] = tested on: A498; test: NCI in vitro cancer screen, Renal Cancer; format: cell-based, human; conditions: A498
[23] = tested on: A549/ATCC; test: NCI in vitro cancer screen, Non-Small Cell Lung Cancer; format: cell-based, human
[24] = tested on: MOLT-4; test: NCI in vitro cancer screen, Leukemia; format: cell-based, human; conditions: MOLT-4
[25] = tested on: OVCAR-5; test: NCI in vitro cancer screen, Ovarian Cancer; format: cell-based, human; conditions: OVCAR-5
[26] = tested on: RPMI-8226; test: NCI in vitro cancer screen, Leukemia; format: cell-based, human; conditions: RPMI-8226
[27] = tested on: NCI-H522; test: NCI in vitro cancer screen, Non-Small Cell Lung Cancer; format: cell-based, human; conditions: NCI-H522
[28] = tested on: OVCAR-4; test: NCI in vitro cancer screen, Ovarian Cancer; format: cell-based, human; conditions: OVCAR-4
[29] = tested on: SNB-75; test: NCI in vitro cancer screen, CNS Cancer; format: cell-based, human; conditions: SNB-75
[30] = tested on: PC-3; test: NCI in vitro cancer screen, Prostate Cancer; format: cell-based, human; conditions: PC-3
[31] = tested on: SN12C; test: NCI in vitro cancer screen, Renal Cancer; format: cell-based, human
[32] = Homo sapiens, read-out: LC50 (the source's name)

## CC(C)=CCc1c(O)cc(/C=C/c2ccc(O)c(O)c2)c(CC=C(C)C)c1O [USYDS7, (E)-2,4-di(3-methyl-2-buten-1-yl)-3,3′,4′,5-tetrahydroxystilbene]
[1]; Homo sapiens
  GI50: 2.18 µM
[1]; [32]
  CC50: 23 µM
[1]
  TGI: 5.93 µM
[2]; Homo sapiens
  GI50: 1.79 µM
[2]; [32]
  CC50: 7.73 µM
[2]
  TGI: 3.71 µM
[3]; Homo sapiens
  GI50: 3.2 µM
  LC50: 42.9 µM
[3]
  TGI: 7.82 µM
[4]
  TGI: 14.7 µM
[4]; Homo sapiens
  GI50: 4.25 µM
[4]; [32]
  CC50: 44.9 µM
[5]; Homo sapiens
  GI50: 3.65 µM
  LC50: 36.7 µM
[5]
  TGI: 11.8 µM
[6]; Homo sapiens
  GI50: 2.1 µM
[6]; [32]
  CC50: 57.9 µM
[6]
  TGI: 12.0 µM
[7]
  TGI: 3.78 µM
[7]; Homo sapiens
  GI50: 1.29 µM
[7]; [32]
  CC50: 22 µM
[8]
  TGI: 6.09 µM
[8]; Homo sapiens, T47D
  GI50: 1.88 µM
[8]; Homo sapiens, T47D, read-out: LC50 (the source's name)
  CC50: 43.5 µM
[9]; Homo sapiens
  GI50: 1.6 µM
[9]; [32]
  CC50: 7.46 µM
[9]
  TGI: 3.46 µM
[10]; Homo sapiens
  GI50: 1.93 µM
[10]; [32]
  CC50: 7.79 µM
[10]
  TGI: 3.88 µM
[11]
  TGI: 4.21 µM
[11]; Homo sapiens
  GI50: 1.52 µM
[11]; [32]
  CC50: 14.2 µM
[12]
  TGI: 3.41 µM
[12]; Homo sapiens
  GI50: 1.71 µM
[12]; [32]
  CC50: 6.81 µM
[13]; Homo sapiens
  GI50: 2.21 µM
[13]; [32]
  CC50: 35.2 µM
[13]
  TGI: 6.14 µM
[14]; Homo sapiens
  GI50: 2.26 µM
[14]; [32]
  CC50: 22.7 µM
[14]
  TGI: 5.47 µM
[15]; Homo sapiens
  GI50: 1.68 µM
[15]; [32]
  CC50: 7.95 µM
[15]
  TGI: 3.65 µM
[16]
  TGI: 10.8 µM
[16]; Homo sapiens, HT-29
  GI50: 3.64 µM
[16]; Homo sapiens, HT-29, read-out: LC50 (the source's name)
  CC50: 45.8 µM
[17]
  TGI: 18.1 µM
[17]; Homo sapiens
  GI50: 5.29 µM
  LC50 (50% lethal concentration): 44.7 µM
[18]
  TGI: 4.34 µM
[18]; Homo sapiens
  GI50: 1.79 µM
[18]; [32]
  CC50: 12.2 µM
[19]; Homo sapiens
  GI50: 1.53 µM
[19]; [32]
  CC50: 6.8 µM
[19]
  TGI: 3.23 µM
[20]
  TGI: 5.06 µM
[20]; Homo sapiens
  GI50: 2.39 µM
[20]; [32]
  CC50: 13.8 µM
[21]; Homo sapiens
  GI50: 1.49 µM
[21]; [32]
  CC50: 10.7 µM
[21]
  TGI: 3.89 µM
[22]
  TGI: 23.8 µM
[22]; Homo sapiens
  GI50: 11.1 µM
[22]; [32]
  CC50: 50.8 µM
[23]
  TGI: 4.06 µM
[23]; Homo sapiens
  GI50: 1.88 µM
[23]; [32]
  CC50: 8.78 µM
[24]; Homo sapiens
  GI50: 2.01 µM
[24]; [32]
  CC50: 26.5 µM
[24]
  TGI: 5.19 µM
[25]; Homo sapiens
  GI50: 3.04 µM
[25]; [32]
  CC50: 39 µM
[25]
  TGI: 11.6 µM
[26]; Homo sapiens
  GI50: 2.31 µM
[26]; [32]
  CC50: 61.1 µM
[26]
  TGI: 6.01 µM
[27]; Homo sapiens
  GI50: 1.61 µM
[27]; [32]
  CC50: 7.92 µM
[27]
  TGI: 3.57 µM
[28]; Homo sapiens
  GI50: 2.85 µM
[28]; [32]
  CC50: 66.8 µM
[28]
  TGI: 11.1 µM
[29]; Homo sapiens
  GI50: 2.98 µM
[29]; [32]
  CC50: 49.1 µM
[29]
  TGI: 12.8 µM
[30]; Homo sapiens
  GI50: 2.02 µM
[30]; [32]
  CC50: 11.3 µM
[30]
  TGI: 4.57 µM
[31]
  TGI: 3.16 µM
[31]; Homo sapiens
  GI50: 1.65 µM
[31]; [32]
  CC50: 6.03 µM
